Test results taken from patent US20230398233A1, “OCULAR ANTIBODY-DRUG CONJUGATES” (ADS THERAPEUTICS LLC, priority 2020, published 2023).

Test: Hydrolysis in water control (phosphate buffer)
Settings: water control (method: phosphate buffer), 37° C., 0-72 h
Description: The 2 μL working solution of either the test compound or the control compound was added and mixed. The samples were incubated at 37° C. and the reaction was stopped by adding 200 μL of quenching solution at 0, 1, 4, 8, 12, 24, 48 and 72 and vortexed vigorously for −1 min. The solution was then centrifuged at 4,000 rpm at 4° C. for 15 min. The 100 μL of the supernatant was removed and mixed with 100 μL distilled water for LC-MS/MS analysis. The 10 μL standard curve working solution was spiked to 190 μL phosphate solution, The 200 μL of quenching solution was added to each standard curve wells. The blank sample was prepared by adding 2 μL of MeOH/DMSO solvent to replace the working solution. The double blank samples was prepared by adding 2 μL of MeOH/DMSO solvent to replace the working solution and by quenching the matrix with acetonitrile/MeOH.

mPEG-PrA-Dexa [Compound 2]
T ½ in water control: No hydrolysis
